In patent US12421243B2, “Pharmaceutically effective compounds inhibiting selectively the myosin 2 isoforms” (PRINTNET KERESKEDELMI ÉS SZOLGÁLTATÓ KFT., priority 2018, dated 2025):
Where two headings read alike, the source gives them in different places.

Legend:
[1] = molecular target: recombinant Dictyostelium miozin (Dictyostelium) (Dictyostelium discoideum, UniProt P08799); test: actomyosin steady state ATPase measurement, Dictyostelium myosin; type: biochemical
Source text: (§1) […]; (ii) the concentration required for semi-maximal inhibition.

[2] = molecular target: T1, isolated porcine cardiac ventricular myocardium (cardiac) (Sus scrofa, UniProt P79293); test: actomyosin steady state ATPase measurement, cardiac myosin; type: biochemical
T1 construct: isolated porcine cardiac ventricular myocardium (cardiac); from tissue; host or cells: porcine cardiac ventricle
Source text: as §1

[3] = solubility in PBS in the presence of 1% DMSO; type: physicochemical; conditions: phosphate buffered saline with 1% DMSO, aqueous buffer, kinetic from dmso stock, PBS w/o Mg, Ca
[4] = vital parameters of live anesthetized rats monitored during isometric force measurement; type: in vivo; conditions: anesthetized rat; for Maximum change of vital parameters (%) blood flow: neck arteries
Description: The maximum isometric force induced by the stimulation was determined after intraperitoneal injection of some of the compounds of the invention. During the measurement, the following parameters of live anesthetized rats were continuously monitored: • a) heart rate • b) blood flow in the neck arteries • c) respiratory frequency • d) blood oxygen saturation ratio

[5] = molecular target: isolated smooth muscle myosin (UniProt P10587); type: biochemical, chamois; conditions: concentration required for semi-maximal inhibition of ATPase
Source text: (ii) the concentration required for semi-maximal inhibition.

S. typhimurium TA100 = test: Ames Reverse Mutagenicity Assay (Ames MPF Test), TA100; type: cell-based
Description: (§2) Mutagenicity of the compounds was determined in the Ames Reverse Mutagenicity Assay (Ames MPF Test, Xenometrix Inc.) approved by the OECD, EMA and FDA on S. typhimurium TA98 and TA100 strains without or in the presence of S9 rat liver fraction. Relative mutagenicity values were prepared using a table provided by the manufacturer. Relative mutagenicity values according to OECD, EMA, and FDA standards may not exceed 2 at any concentration because in such a case they are potentially mutagenic.

[6] = tissue concentrations after intraperitoneal injection into a live rat; type: in vivo; conditions: ip, 6 mg i.p.
[7] = test system: isolated rabbit skeletal muscle myosin (skeletal); test: actomyosin steady state ATPase measurement, skeletal muscle myosin; type: biochemical
Source text: as §1

[8] = molecular target: isolated smooth muscle myosin (UniProt P10587); type: biochemical, chamois
[9] = molecular target: recombinant human non-muscle myosin 2 NM2A (Homo sapiens, UniProt P35579); test: actomyosin steady state ATPase measurement, NM2A; type: biochemical
Source text: as §1

S. typhimurium TA98 = test: Ames Reverse Mutagenicity Assay (Ames MPF Test), TA98; type: cell-based
Description: as §2

[10] = molecular target: recombinant human non-muscle myosin 2 NM2B (Homo sapiens, UniProt P35580); test: actomyosin steady state ATPase measurement, NM2B; type: biochemical
Source text: as §1

[11] = maximum value of inhibition of ATPase activity
[12] = concentration required for semi-maximal inhibition of ATPase
[13] = blood, read-out: Concentration of compound 188 in tissue samples (μM) blood
[14] = brain, read-out: Concentration of compound 188 in tissue samples (μM) brain
[15] = skeletal muscle, read-out: Concentration of compound 188 in tissue samples (μM) muscle
[16] = kidney, read-out: Concentration of compound 188 in tissue samples (μM) kidney
[17] = liver, read-out: Concentration of compound 188 in tissue samples (μM) liver
[18] = lung, read-out: Concentration of compound 188 in tissue samples (μM) lung
[19] = myocardium, read-out: Concentration of compound 188 in tissue samples (μM) myocardium
[20] = spleen, read-out: Concentration of compound 188 in tissue samples (μM) spleen
[21] = urine, read-out: Concentration of compound 188 in tissue samples (μM) urine
[22] = 5 μM (10 μM if racemate), ATPase activity
[23] = 50 μM (100 μM if racemate), ATPase activity

Sequence of recombinant Dictyostelium miozin (Dictyostelium) (P08799 whole entry): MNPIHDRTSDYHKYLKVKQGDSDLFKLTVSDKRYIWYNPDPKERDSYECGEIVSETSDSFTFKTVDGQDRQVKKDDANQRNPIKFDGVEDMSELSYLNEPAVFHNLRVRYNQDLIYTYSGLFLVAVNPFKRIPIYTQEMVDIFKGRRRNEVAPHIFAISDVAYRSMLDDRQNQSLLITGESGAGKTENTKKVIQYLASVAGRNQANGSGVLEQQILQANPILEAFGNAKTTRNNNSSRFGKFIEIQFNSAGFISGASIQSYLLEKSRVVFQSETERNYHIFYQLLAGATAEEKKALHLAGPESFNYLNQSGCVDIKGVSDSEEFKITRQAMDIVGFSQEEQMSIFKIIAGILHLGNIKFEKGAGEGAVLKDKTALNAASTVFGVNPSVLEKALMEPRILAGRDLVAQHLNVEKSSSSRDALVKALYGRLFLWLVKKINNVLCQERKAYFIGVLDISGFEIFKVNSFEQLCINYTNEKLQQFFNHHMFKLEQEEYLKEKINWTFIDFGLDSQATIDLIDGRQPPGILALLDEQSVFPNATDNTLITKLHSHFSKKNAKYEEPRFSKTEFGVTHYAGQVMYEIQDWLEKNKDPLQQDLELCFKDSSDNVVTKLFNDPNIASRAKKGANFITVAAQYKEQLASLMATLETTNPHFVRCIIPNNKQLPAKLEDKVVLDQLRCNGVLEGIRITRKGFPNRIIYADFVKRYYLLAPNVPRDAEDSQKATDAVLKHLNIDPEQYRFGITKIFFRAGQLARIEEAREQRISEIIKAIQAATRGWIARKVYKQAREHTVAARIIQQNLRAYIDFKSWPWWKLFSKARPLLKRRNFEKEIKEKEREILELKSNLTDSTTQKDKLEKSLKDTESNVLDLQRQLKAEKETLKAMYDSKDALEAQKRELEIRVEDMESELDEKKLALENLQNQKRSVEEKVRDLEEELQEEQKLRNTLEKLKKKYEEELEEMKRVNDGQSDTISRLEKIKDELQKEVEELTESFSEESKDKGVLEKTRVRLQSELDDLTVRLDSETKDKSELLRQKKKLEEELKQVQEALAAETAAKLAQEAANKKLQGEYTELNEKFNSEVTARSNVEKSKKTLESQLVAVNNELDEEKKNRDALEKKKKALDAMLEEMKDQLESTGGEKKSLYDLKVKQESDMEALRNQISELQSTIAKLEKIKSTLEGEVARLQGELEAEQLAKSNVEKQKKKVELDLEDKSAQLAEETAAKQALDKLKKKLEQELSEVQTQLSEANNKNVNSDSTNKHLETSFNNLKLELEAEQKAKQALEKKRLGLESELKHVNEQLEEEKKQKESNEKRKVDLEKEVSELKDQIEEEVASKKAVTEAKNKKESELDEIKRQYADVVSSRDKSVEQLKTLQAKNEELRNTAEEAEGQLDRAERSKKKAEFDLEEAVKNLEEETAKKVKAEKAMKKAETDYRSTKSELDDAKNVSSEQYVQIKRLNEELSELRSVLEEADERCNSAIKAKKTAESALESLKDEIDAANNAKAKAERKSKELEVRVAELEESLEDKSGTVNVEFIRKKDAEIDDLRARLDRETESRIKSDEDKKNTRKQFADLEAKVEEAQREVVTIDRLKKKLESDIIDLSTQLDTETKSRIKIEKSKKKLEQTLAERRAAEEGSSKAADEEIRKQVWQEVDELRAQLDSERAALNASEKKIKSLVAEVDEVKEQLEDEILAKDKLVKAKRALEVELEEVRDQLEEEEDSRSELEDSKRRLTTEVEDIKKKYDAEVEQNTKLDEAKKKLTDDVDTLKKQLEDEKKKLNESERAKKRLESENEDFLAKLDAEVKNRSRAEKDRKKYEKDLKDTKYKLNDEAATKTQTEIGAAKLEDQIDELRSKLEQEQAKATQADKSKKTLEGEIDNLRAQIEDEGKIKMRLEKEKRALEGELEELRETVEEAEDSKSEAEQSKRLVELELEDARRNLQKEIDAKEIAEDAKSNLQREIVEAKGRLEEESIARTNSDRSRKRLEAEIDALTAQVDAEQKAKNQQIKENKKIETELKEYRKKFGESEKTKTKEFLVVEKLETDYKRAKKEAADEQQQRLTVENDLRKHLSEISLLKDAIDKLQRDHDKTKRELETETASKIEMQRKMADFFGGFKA
T1 sequence (P79293 whole entry): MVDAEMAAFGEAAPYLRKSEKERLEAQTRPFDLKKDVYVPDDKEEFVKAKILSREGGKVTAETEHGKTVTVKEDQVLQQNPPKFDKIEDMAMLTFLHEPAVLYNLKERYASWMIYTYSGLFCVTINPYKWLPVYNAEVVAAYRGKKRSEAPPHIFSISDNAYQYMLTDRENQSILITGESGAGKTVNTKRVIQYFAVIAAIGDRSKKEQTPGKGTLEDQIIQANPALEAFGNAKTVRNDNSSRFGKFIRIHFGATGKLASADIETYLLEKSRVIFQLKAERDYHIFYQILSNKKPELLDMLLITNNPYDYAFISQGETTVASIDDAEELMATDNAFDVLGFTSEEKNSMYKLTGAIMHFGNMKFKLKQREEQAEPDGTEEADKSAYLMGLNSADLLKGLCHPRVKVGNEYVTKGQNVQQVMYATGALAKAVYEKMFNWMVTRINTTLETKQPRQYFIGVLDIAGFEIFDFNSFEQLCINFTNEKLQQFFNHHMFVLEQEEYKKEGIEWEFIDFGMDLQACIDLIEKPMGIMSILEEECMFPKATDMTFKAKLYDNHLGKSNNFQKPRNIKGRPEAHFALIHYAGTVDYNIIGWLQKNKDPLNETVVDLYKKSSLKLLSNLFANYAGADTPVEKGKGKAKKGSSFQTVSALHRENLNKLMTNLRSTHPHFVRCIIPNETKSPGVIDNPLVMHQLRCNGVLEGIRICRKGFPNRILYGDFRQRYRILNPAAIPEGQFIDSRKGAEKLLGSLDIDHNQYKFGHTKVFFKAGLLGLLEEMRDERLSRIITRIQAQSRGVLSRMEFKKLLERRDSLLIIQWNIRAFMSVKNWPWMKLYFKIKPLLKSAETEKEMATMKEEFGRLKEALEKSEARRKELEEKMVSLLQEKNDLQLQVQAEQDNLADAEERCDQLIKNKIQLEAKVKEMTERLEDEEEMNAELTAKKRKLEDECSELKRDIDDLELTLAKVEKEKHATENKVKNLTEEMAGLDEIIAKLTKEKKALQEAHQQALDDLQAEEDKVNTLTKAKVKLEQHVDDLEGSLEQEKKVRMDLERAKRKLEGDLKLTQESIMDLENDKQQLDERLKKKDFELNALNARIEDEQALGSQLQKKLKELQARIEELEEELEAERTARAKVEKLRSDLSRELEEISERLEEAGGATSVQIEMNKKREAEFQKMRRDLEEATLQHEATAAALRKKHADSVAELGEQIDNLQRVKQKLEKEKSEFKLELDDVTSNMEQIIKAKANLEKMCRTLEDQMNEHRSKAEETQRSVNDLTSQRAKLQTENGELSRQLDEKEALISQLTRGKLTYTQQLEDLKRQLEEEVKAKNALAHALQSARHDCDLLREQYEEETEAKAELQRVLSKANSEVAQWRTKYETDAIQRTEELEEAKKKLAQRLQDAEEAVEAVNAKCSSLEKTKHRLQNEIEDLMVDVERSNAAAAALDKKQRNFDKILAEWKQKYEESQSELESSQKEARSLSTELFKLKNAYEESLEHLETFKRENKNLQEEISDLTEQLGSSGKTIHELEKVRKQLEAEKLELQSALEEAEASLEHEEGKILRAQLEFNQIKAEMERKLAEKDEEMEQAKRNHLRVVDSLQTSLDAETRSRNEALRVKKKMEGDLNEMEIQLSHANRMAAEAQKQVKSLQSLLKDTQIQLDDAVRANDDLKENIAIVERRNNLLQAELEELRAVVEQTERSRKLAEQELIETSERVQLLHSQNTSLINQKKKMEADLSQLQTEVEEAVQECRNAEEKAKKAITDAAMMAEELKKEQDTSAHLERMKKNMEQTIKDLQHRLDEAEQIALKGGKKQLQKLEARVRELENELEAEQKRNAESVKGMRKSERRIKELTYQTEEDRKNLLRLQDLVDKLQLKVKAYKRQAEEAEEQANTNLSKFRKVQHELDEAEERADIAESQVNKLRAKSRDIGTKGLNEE

With `O=C1c2ccsc2N=C2N(c3ccc(N4CCOCC4)cc3)CCC12O` (centres unmarked) [Compound 188, 9-Hydroxy-12-[4-(morpholin-4-yl)phenyl]-4-thia-2,12-diazatricyclo[7.3.0.0^3,7]dodeca-1,3(7),5-trien-8-one] the IC50 ([1]; concentration required for semi-maximal inhibition of ATPase, read-out: IC50 (μM) Dicty) was 13 µM, the “% inhibition. complete Dicty” value [1, 11] was 19% and the inhibition at 5 µM ([1]; read-out: % inhibition at 5 μM (or 10 μM if racemate) Dicty) was 5%. For the same compound, the inhibition at 50 µM ([1]; read-out: % inhibition at 50 μM (or 100 μM if racemate) Dicty) was 15%, the IC50 [2, 12] was > 100 µM and the “% inhibition. complete cardiac” value [2, 11] was 32%. For the same compound, the inhibition at 5 µM ([2]; read-out: % inhibition at 5 μM (or 10 μM if racemate) cardiac, 5 μM (10 μM if racemate), ATPase activity) was 0%, the inhibition at 50 µM ([2]; read-out: % inhibition at 50 μM (or 100 μM if racemate) cardiac, 50 μM (100 μM if racemate), ATPase activity) was 8% and the solubility [3] was 1450 µM. For the same compound, the “Maximum change of vital parameters (%) heart rate” value (“Maximum change … (%) heart rate” for short) ([4]; 1 mg i.p.) was 3%, the “Maximum change of vital parameters (%) oxygen saturation” value (“Maximum change … (%) oxygen saturation” for short) ([4]; 1 mg i.p.) was −16% and the “Maximum change of vital parameters (%) respiratory frequency” value (“Maximum change … (%) respiratory frequency” below) ([4]; 1 mg i.p.) was −18%. The “Maximum change of vital parameters (%) blood flow” value (shortened to “Maximum change … (%) blood flow”) ([4]; 1 mg i.p.) was 15%, the “Maximum change … (%) heart rate” value ([4]; 3 mg i.p.) was −3% and the “Maximum change … (%) oxygen saturation” value ([4]; 3 mg i.p.) was −3%. The “Maximum change … (%) respiratory frequency” value ([4]; 3 mg i.p.) was 5%, the “Maximum change … (%) blood flow” value ([4]; 3 mg i.p.) was −5% and the “Maximum change … (%) heart rate” value ([4]; 6 mg i.p.) was −9%. For the same compound, the “Maximum change … (%) oxygen saturation” value ([4]; 6 mg i.p.) was −1%, the “Maximum change … (%) respiratory frequency” value ([4]; 6 mg i.p.) was −1% and the “Maximum change … (%) blood flow” value ([4]; 6 mg i.p.) was −1%. The “Maximum change … (%) heart rate” value ([4]; 9 mg i.p.) was −12%, the “Maximum change … (%) oxygen saturation” value ([4]; 9 mg i.p.) was −27% and the “Maximum change … (%) respiratory frequency” value ([4]; 9 mg i.p.) was −40%. The “Maximum change … (%) blood flow” value ([4]; 9 mg i.p.) was 9%, the IC50 [5] was > 100 µM and the “Relative mutagenicity (as compared to the control value)” value (from here on “Relative mutagenicity”) (S. typhimurium TA100; TA100, +S9, 31.25 μM) was 0.4. The “Relative mutagenicity” value (S. typhimurium TA100; TA100, +S9, 62.5 μM) was 0.3, the “Relative mutagenicity” value (S. typhimurium TA100; TA100, +S9, 125 μM) was 0.6 and the “Relative mutagenicity” value (S. typhimurium TA100; TA100, +S9, 250 μM) was 0.6. The “Relative mutagenicity” value (S. typhimurium TA100; TA100, +S9, 500 μM) was 0.6, the “Relative mutagenicity” value (S. typhimurium TA100; TA100, +S9, 1000 μM) was 0.5 and the “Relative mutagenicity” value (S. typhimurium TA100; TA100, −S9, 31.25 μM) was 0.8. The “Relative mutagenicity” value (S. typhimurium TA100; TA100, −S9, 62.5 μM) was 0.5, the “Relative mutagenicity” value (S. typhimurium TA100; TA100, −S9, 125 μM) was 0.6 and the “Relative mutagenicity” value (S. typhimurium TA100; TA100, −S9, 250 μM) was 0.5. For the same compound, the “Relative mutagenicity” value (S. typhimurium TA100; TA100, −S9, 500 μM) was 0.6, the “Relative mutagenicity” value (S. typhimurium TA100; TA100, −S9, 1000 μM) was 0.7 and the concentration at 5 min [6, 13] was 12 µM. The concentration at 15 min [6, 13] was 16 µM, the concentration at 30 min [6, 13] was 12 µM and the concentration at 45 min [6, 13] was 10 µM. It also gave a concentration at 60 min [6, 13] of 8 µM, a concentration at 5 min [6, 14] of 25 µM and a concentration at 15 min [6, 14] of 45 µM. It also gave a concentration at 30 min [6, 14] of 36 µM, a concentration at 45 min [6, 14] of 17 µM and a concentration at 60 min [6, 14] of 5 µM. It also gave a concentration at 5 min [6, 15] of 22 µM, a concentration at 15 min [6, 15] of 48 µM and a concentration at 30 min [6, 15] of 69 µM. It also gave a concentration at 45 min [6, 15] of 78 µM, a concentration at 60 min [6, 15] of 74 µM and a concentration at 5 min [6, 16] of 29 µM. It also gave a concentration at 15 min [6, 16] of 56 µM, a concentration at 30 min [6, 16] of 20 µM and a concentration at 45 min [6, 16] of 12 µM. For the same compound, the concentration at 60 min [6, 16] was 3 µM, the concentration at 5 min [6, 17] was 30 µM and the concentration at 15 min [6, 17] was 18 µM. It also gave a concentration at 30 min [6, 17] of 12 µM, a concentration at 45 min [6, 17] of 9 µM and a concentration at 60 min [6, 17] of 3 µM. It also gave a concentration at 5 min [6, 18] of 25 µM, a concentration at 15 min [6, 18] of 36 µM and a concentration at 30 min [6, 18] of 22 µM. For the same compound, the concentration at 45 min [6, 18] was 9 µM, the concentration at 60 min [6, 18] was 4 µM and the concentration at 5 min [6, 19] was 36 µM. For the same compound, the concentration at 15 min [6, 19] was 48 µM, the concentration at 30 min [6, 19] was 26 µM and the concentration at 45 min [6, 19] was 18 µM. The concentration at 60 min [6, 19] was 9 µM, the concentration at 5 min [6, 20] was 37 µM and the concentration at 15 min [6, 20] was 28 µM. It also gave a concentration at 30 min [6, 20] of 11 µM, a concentration at 45 min [6, 20] of 5 µM and a concentration at 60 min [6, 20] of 3 µM. For the same compound, the concentration at 5 min [6, 21] was 58 µM, the concentration at 15 min [6, 21] was 77 µM and the concentration at 30 min [6, 21] was 72 µM. For the same compound, the concentration at 45 min [6, 21] was 63 µM, the concentration at 60 min [6, 21] was 21 µM and the “% inhibition at 5 μM (or 10 μM if racemate) Skeletal” value [7, 22] was 50%. The “% inhibition at 50 μM (or 100 μM if racemate) Skeletal” value [7, 23] was 95%, the IC50 [7, 12] was 5 µM and the “% inhibition. complete Skeletal” value [7, 11] was 100%. For the same compound, the “% inhibition at 5 μM (or 10 μM if racemate) Smooth” value [8, 22] was 0%, the “% inhibition at 50 μM (or 100 μM if racemate) Smooth” value [8, 23] was 11% and the “% inhibition. complete Smooth” value [8, 11] was 100%. The IC50 [9, 12] was 82 µM, the “% inhibition. complete NM2A” value [9, 11] was 31% and the inhibition at 5 µM ([9]; read-out: % inhibition at 5 μM (or 10 μM if racemate) NM2A, 5 μM (10 μM if racemate), ATPase activity) was 0%. The inhibition at 50 µM ([9]; read-out: % inhibition at 50 μM (or 100 μM if racemate) NM2A, 50 μM (100 μM if racemate), ATPase activity) was 9%, the “Relative mutagenicity” value (S. typhimurium TA98; TA98, +S9, 31.25 μM) was 0.2 and the “Relative mutagenicity” value (S. typhimurium TA98; TA98, +S9, 62.5 μM) was 0.2. The “Relative mutagenicity” value (S. typhimurium TA98; TA98, +S9, 125 μM) was 0.4, the “Relative mutagenicity” value (S. typhimurium TA98; TA98, +S9, 250 μM) was 0.4 and the “Relative mutagenicity” value (S. typhimurium TA98; TA98, +S9, 500 μM) was 0.4. For the same compound, the “Relative mutagenicity” value (S. typhimurium TA98; TA98, +S9, 1000 μM) was 0.2, the “Relative mutagenicity” value (S. typhimurium TA98; TA98, −S9, 31.25 μM) was 1.2 and the “Relative mutagenicity” value (S. typhimurium TA98; TA98, −S9, 62.5 μM) was 0.3. The “Relative mutagenicity” value (S. typhimurium TA98; TA98, −S9, 125 μM) was 0.7, the “Relative mutagenicity” value (S. typhimurium TA98; TA98, −S9, 250 μM) was 0.3 and the “Relative mutagenicity” value (S. typhimurium TA98; TA98, −S9, 500 μM) was 0.7. The “Relative mutagenicity” value (S. typhimurium TA98; TA98, −S9, 1000 μM) was 1.0, the IC50 [10, 12] was 5 µM and the “% inhibition. complete NM2B” value [10, 11] was 19%. The inhibition at 5 µM ([10]; read-out: % inhibition at 5 μM (or 10 μM if racemate) NM2B, 5 μM (10 μM if racemate), ATPase activity) was 8% and the inhibition at 50 µM ([10]; read-out: % inhibition at 50 μM (or 100 μM if racemate) NM2B, 50 μM (100 μM if racemate), ATPase activity) was 18%.
